Columns and labels:
[1] = test system: cultured human mast cells (CHMC); test: CHMC low cell density ionomycin activation: tryptase assay; assay type: cell-based
[2] = test system: cultured human mast cells (CHMC); test: CHMC low cell density IgE activation: tryptase assay; assay type: cell-based; conditions: anti-IgE
Procedure, shortened: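 Cells pelleted, taken up in warm MT, plated at 1000-1500/well, held 1 hr 37° C. Anti-IgE added, 30 min 37° C. Plates spun; supernatant mixed with tryptase substrate, 30 min RT.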

Compound	IC50 [1] [µM]	IC50 [2] [nM]
COC(=O)COc1cccc(Nc2ncc(F)c(Nc3cccc(O)c3)n2)c1 [R945118, 5-Fluoro-N4-(3-hydroxyphenyl)-N2-(3-methoxycarbonylmethyleneoxyphenyl)-2,4-pyrimidinediamine]	> 10	668
CCOC(=O)COc1cccc(Nc2ncc(F)c(Nc3cc(OC)cc(OC)c3)n2)c1 [R926795, N4-(3,5-Dimethoxyphenyl)-N2-(3-ethoxycarbonylmethyleneoxyphenyl)-5-fluoro-2,4-pyrimidinediamine]	> 10	2040
5-Fluoro N4-(3-hydroxyphenyl)-N2-(5-methyl-4-oxazolyl-2-phenyl)-2,4-pyrimidinediamine [R926779]	> 10	> 10000
O=C1Nc2cc(Nc3nc(Nc4cccc(O)c4)ncc3F)ccc2OC1(F)F [R940349, N4-[(2,2-Difluoro-4H-benzo[1,4]oxazin-3-one)-6-yl]-5-fluoro-N2-(3-hydroxyphenyl)-2,4-pyrimidinediamine]	7.4	44
CC(C)Oc1cccc(Nc2nc(Nc3ccc4oc(C(=O)N5CCOCC5)cc4c3)ncc2F)c1 [R926489, 5-Fluoro-N4-(3-isopropoxyphenyl)-N2-[2-(N-morpholino)carbonylbenzofuran-5-yl]-2,4-pyrimidinediamine]	> 10	1410
CNC(=O)COc1cccc(Nc2ncc(F)c(Nc3cccc(OC)c3)n2)c1 [R926738, 5-Fluoro-N4-(3-methoxyphenyl)-N2-[3-(N-methylamino)carbonylmethyleneoxyphenyl]-2,4-pyrimidinediamine]	> 10	342
CCOC(=O)c1cnc(Nc2cccc(O)c2)nc1N[C@@H](Cc1ccccc1)C(=O)OCC [R926528, 5-Ethoxycarbonyl-N2-(3-hydroxyphenyl)-4-[N-(L)-phenylalanineethyl ester]-2-pyrimidineamine]	> 10	8750
O=C(COc1cccc(Nc2ncc(F)c(Nc3ccc4c(c3)OCCO4)n2)c1)NCCOC(=O)CCCCC1SCC2NC(=O)NC21 (stereo not drawn) [R926811, N4-(3,4-Ethylenedioxyphenyl)-5-fluoro-N2-[3-[N-2-(D)-(+)-biotinylethylamino]carbonylmethyleneoxyphenyl]-2,4-pyrimidinediamine]	> 10	3660
Fc1cnc(Nc2ccc3c(c2)OCCO3)nc1Nc1ccc2cn[nH]c2c1 [R935261, N2-(3,4-Ethylenedioxyphenyl)-5-fluoro-N4-(indazoline-6-yl)-2,4-pyrimidinediamine]	> 10	391
CNC(=O)CCn1ncc2ccc(Nc3ncc(F)c(Nc4cccc(O)c4)n3)cc21 [R935294, 5-Fluoro-N4-(3-hydroxyphenyl)-N2-[1-[2-(N-methylaminocarbonyl)ethyl]-indazoline-6-yl]-2,4-pyrimidinediamine]	> 10	388
Nc1cccc(Nc2nc(Nc3cccc(NC(=O)CCC(N)C(=O)O)c3)ncc2F)c1 (racemic) [R950255, (±)-N4-(3-Aminophenyl)-5-fluoro-N2-[3-(3-carboxy-3-amino)propylenecarbonylaminophenyl]-2,4-pyrimidinediamine]	> 10	10000
COc1ccc(Nc2nc(NC3CCN(Cc4ccccc4)CC3)ncc2F)cc1OC [R940263, N2-[4-(N-Benzylpiperidino)]-N4-(3,4-dimethoxyphenyl)-5-fluoro-2,4-pyrimidinediamine]	> 10	> 10000
CCOC(=O)c1cnc(Nc2ccc(OCC(=O)OC)cc2)nc1Nc1ccc(OCC(=O)O)cc1 [R926583, N4-(4-Carboxymethyleneoxyphenyl)-5-ethoxycarbonyl-N2-(4-methoxycarbonylmethyleneoxyphenyl)-2,4-pyrimidinediamine]	> 10	> 10000
Cc1cnc(Nc2ccc(OCc3nnn(C)n3)cc2)nc1Nc1cccc(O)c1 [R920893, N4-(3-Hydroxyphenyl)-5-methyl-N2-[4-(2-methyl-1,2,3,4-tetrazol-5-yl)methyleneoxyphenyl]-2,4-pyrimidineamine]	> 10	1240
CNC(=O)COc1cccc(Nc2ncc(F)c(Nc3ccc4c(c3)C(O)CCO4)n2)c1 (centres unmarked) [R950349, N4-(4-Hydroxy-3,4-dihydro-2H-1-benzopyran-6-yl)-5-fluoro-N2-[3-(N-methylamino)carbonylmethyleneoxyphenyl]-2,4-pyrimidinediamine]	> 10	78
CNC(=O)Cn1ncc2ccc(Nc3ncc(F)c(Nc4ccc5cnn(CC(=O)NC)c5c4)n3)cc21 [R935206, N2,N4-Bis[1-(N-methylaminocarbonyl)methyl-indazoline-6-yl]-5-fluoro-2,4-pyrimidinediamine]	> 10	4710
CC(C)(C)c1cccc(Nc2nc(Nc3ccc4oc(CO)cc4c3)ncc2F)c1 [R940287, N4-(3-tert-Butylphenyl)-5-fluoro-N2-[(2-hydroxymethylene)benzofur-5-yl]-2,4-pyrimidinediamine]	7.68	288

Compound	IC50 [1] [µM]	IC50 [2] [nM]
CCOC(=O)Cc1nnc(-c2cccc(Nc3ncc(F)c(Nc4cccc(O)c4)n3)c2)o1 [R926874]	> 10	638
CN1CCN(C(=O)CNc2cccc(Nc3ncc(F)c(Nc4cccc(NCCO)c4)n3)c2)CC1 [R950240, N4-[3-(2-Hydroxyethyleamino)phenyl]-N2-[3-(N—(N-methyl)-piperazino)carbonylmethyleneaminophenyl]-5-fluoro-2,4-pyrimidinediamine]	> 10	1770
COC(=O)Cn1ncc2ccc(Nc3nc(Nc4ccc(OC(C)C)cc4)ncc3F)cc21 [R935218, 5-Fluoro-N2-(4-isopropoxyphenyl)-N4-[1-(methoxycarbonyl)methyl-indazoline-6-yl]-2,4-pyrimidinediamine]	> 10	4710
OCCOc1ccc(Nc2ncc(F)c(Nc3ccc4c(c3)OCCCO4)n2)cc1 [R935186, 5-Fluoro-N2-[4-(2-hydroxyethoxy)phenyl]-N4-(3,4-propylenedioxyphenyl)-2,4-pyrimidinediamine]	> 10	211
O=C(CNc1cccc(Nc2ncc(F)c(Nc3ccc4c(c3)OCCO4)n2)c1)NCCN1CCOCC1 [R950200, N4-(3,4-Ethylenedioxyphenyl)-5-fluoro-N2-[3-(N-2-morpholinoethyleneamino)carbonylmethyleneaminophenyl]-2,4-pyrimidinediamine]	> 10	245
Nc1cccc(Nc2nc(Nc3cccc(NCCOCc4ccccc4)c3)ncc2F)c1 [R950176, N4-(3-Aminophenyl)-N2-[3-(N-benzyloxyethyleneamino)phenyl]-5-fluoro-2,4-pyrimidinediamine]	> 10	1340
Cn1nnnc1COc1ccc(Nc2nccc(Nc3cccc(O)c3)n2)cc1 [R920917, N4-(3-hydroxyphenyl)-N2-[4-(1-methyl-1,2,3,4-tetrazol-5-yl)methyleneoxyphenyl]-2,4-pyrimidineamine]	9.73	1580
CC1Sc2ccc(Nc3ncc(F)c(Nc4cccc(O)c4)n3)cc2NC1=O (racemic) [R909263, (+/−)-5-Fluoro-N4-(3-hydroxyphenyl]-N2-(2-methyl-1,4-benzothiazin-3-on-6-yl)pyrimidinediamine]	> 10	289
CC(C)(C)OC(=O)COc1ccc(Nc2ncc(F)c(Nc3ccc(OCC(=O)OC(C)(C)C)cc3)n2)cc1 [R926574, N2,N4-Bis[4-(tert-butoxycarbonylmethyleneoxy)phenyl]-5-fluoro-2,4-pyrimidinediamine]	2.63	1960
CNC(=O)COc1cc(Nc2ncc(F)c(Nc3ccc(C)c(O)c3)n2)ccc1C [R926759, 5-Fluoro-N4-(3-hydroxy-4-methylphenyl)-N2-[4-methyl-3-[(N-methylamino)carbonylmethyleneoxy]phenyl]-2,4-pyrimidinediamine]	> 10	688
CC(C)c1cccc(Nc2nc(Nc3cccc(OCC(=O)NC[C@@H](O)CO)c3)ncc2F)c1 [R940307, (R)—N2-[3-(dihydroxypropylaminocarbonylmethyleneoxy)-phenyl]-5-fluoro-N4-(3-isopropylphenyl)-2,4-pyrimidinediamine]	> 10	291
Fc1cnc(Nc2ccc3c(c2)OCCCO3)nc1Nc1ccc2c(c1)OCCCO2 [R935162, N2,N4-Bis(3,4-propylenedioxyphenyl)-5-fluoro-2,4-pyrimidinediamine]	> 10	269
NC(=O)Cn1c(=O)oc2ccc(Nc3ncc(F)c(Nc4ccc5c(c4)OCCO5)n3)cc21 [R926847, N2-[5-(N-Aminocarbonylmethylene-2-oxo-1,3-oxazol-3(2H)-yl)phenyl]-N4-(3,4-ethylenedioxyphenyl)-5-fluoro-2,4-pyrimidinediamine]	6.26	1480
Cc1noc(COc2ccc(Nc3ncc(F)c(Nc4cccc(O)c4)n3)cc2)n1 [R935141, 5-Fluoro-N4-(3-hydroxyphenyl)-N2-[4-(3-methyl-1,2,4-oxadiazol-5-yl)methyleneoxyphenyl]-2,4-pyrimidinediamine]	> 10	727
Cc1nc(COc2cccc(Nc3nc(Nc4ccc(OC(C)C)cc4)ncc3F)c2)no1 [R945138, 5-Fluoro-N2-(4-isopropoxyphenyl)-N4-[3-(5-methyl-1,2,4-oxadiazol-3-yl)methyleneoxyphenyl]-2,4-pyrimidinediamine]	6.73	1060
CNC(=O)COc1cccc(Nc2ncc(F)c(Nc3ccc4c(c3)NC(=O)C(C)(C)O4)n2)c1 [R940323, N4-[(2,2-Dimethyl-4H-benzo[1,4]oxazin-3-one)-6-yl]-5-fluoro-N2-[3-(methylaminocarbonylmethyleneoxy)phenyl]-2,4-pyrimidinediamine]	> 10	48
CNC(=O)COc1cccc(Nc2nc(Nc3cccc(C(C)(C)C)c3)ncc2F)c1 [R940267, N2-(3-tert-Butylphenyl)-N4-[3-(N-methylamino)carbonylmethyleneoxyphenyl]-5-fluoro-2,4-pyrimidinediamine]	> 10	3150

Source: patent publication US9499493B2, “2,4-pyrimidinediamine compounds and their uses” (Rigel Pharmaceuticals, Inc., priority 2002, dated 2016)
